Test results: US5277897A, “In vivo enhancement of cellular accumulation of lipophilic cationic organometallic compounds by reduction of intramembrane potential” (Brigham and Women's Hospital, priority 1992, dated 1994)

Columns and labels:
[1] = tested on: cultured chick heart cells; assay: Effect of TPB on the Ko-dependence of Tc-MIBI influx rates; plasma membrane potential by Goldman flux equation (FIG. 6); assay type: cell-based
Procedure: FIG. 6. Effect of TPB on the Ko -dependence of Tc-MIBI influx rates. A) Preparations were preincubated in MEBSS containing the indicated Ko (K-MSA substitution for NaCl) for 1 minute in the absence (.quadrature.) and for 5 minutes in the presence ( ) of valinomycin (1 ug/ml) prior to determination of 2-min Tc-MIBI uptakes in buffer of the same composition. B) Same conditions as A with a 5-minute pre-incubation period in buffers that also contained TPB (10^-5 M) in the absence (o) or presence (·) of valinomycin. C) Resting membrane potential (Em) as a function of Ko. Em was calculated from the Tc-MIBI influx data shown in A in the presence of valinomycin using the Goldman flux equation (Restrepo, D., et al., J. Gen. Physiol. 92:489-507 (1988)): J/Jo =-x/(1-e^x) where x=Em F/RT and J/Jo is the ratio of Tc-MIBI influx rates at Em and zero membrane potential (Ko =130 mM), respectively. RT/F equals 26 mV at 37° C. The solid lines in A and B have no theoretical significance. The solid line in C represents a linear regression of the data: -Em =-67 log Ko +147mV (r=-0.99). […] Each point is the mean ±SEM of 3 determinations.
Monolayers of spontaneously contractile chick ventricular myocardial cells were obtained from disaggregated 10-day old chick embryo hearts by a slight modification of previously published methods (Horres, C. R., et al., In Pinson, A. (ed.), The Heart Cell in Culture, Boca Raton, CRC Press, pp. 77-108 (1987)). Hearts were trimmed of connective tissue and atria, finely minced and serially exposed to 0.024% (w/v) trypsin in Ca^2+ - and Mg^2+ - free Earle's salt solution for 7 minutes at 37° C. Gentle trituration and agitation on an orbital shaker bath aided disaggregation. Cells released from the first exposure were discarded and cells aspirated from the next four exposures were then added to an equal volume of trypsin deactivating solution consisting of ice-cold culture medium. Cells were centrifuged at 400 g for 10 minutes, resuspended and combined in culture medium, counted with a hemocytometer and diluted to yield a suspension of 5×10^5 cells/ml. 12 ml of suspension were incubated in 100 mm plastic culture dishes containing 7 coverslips (25 mm diameter) placed on the bottom of each dish to serve as substrate for cell growth. Cells were maintained in a humidified atmosphere of 5% CO2 /95% air for 3-4 days yielding a confluent layer of spontaneously contractile myocytes on each coverslip.
Radioactive uptake methods have been described in detail (Piwnica-Worms, D., et al, Circ. (in press). Briefly, coverslips with confluent cells were removed from culture media and pre-equilibrated for 40-60 seconds in MEBSS buffer. Uptake and retention experiments were initiated by immersion of coverslips in 60 mm glass Pyrex dishes containing loading solution consisting of buffer with 0.1-0.6 nM [^99m Tc-MIBI] (0.01-0.4 Ci/nmole; 25-100 uCi/ml). Preparations were removed at various times and rinsed three times in 25 ml volumes of ice-cold (2° C.) isotope-free buffer for 8 seconds each to clear extracellular spaces. Preparations and aliquots of the loading buffer and stock solutions were counted in a well-type sodium iodide gamma counter after which cell protein on each coverslip was extracted in 1% sodium dodecylsulfate with 10 mM sodium borate and assayed by the method of Lowry (Lowry, O. H., et al., J. Biol. Chem. 193:265-275 (1951)). Tc-MIBI binding to glass coverslips without cells was used as an estimate of non-specific adhesion to the substrate ([…] obtained with cellular preparations); this value was subtracted from total uptake determinations to derive the cell-associated counts. Use of generator equilibrium equations (Lamson, M. L., et al., i J. Nucl. Med. 16:639-641 (1975)) allowed calculation of absolute moles of Tc-MIBI in solutions and preparations. Results were therefore expressed as fmol cellular Tc-MIBI/mg protein per nM extracellular Tc-MIBI concentration. […]

[2] = Effect of tetraphenylborate on the biodistribution of Tc-MIBI in rats (Table 2); assay type: in vivo; conditions: for Blood level / Heart uptake / Kidney uptake / Liver uptake / Lung uptake: 15 minutes; for tissue retention of Tc-MIBI, all tissues: 15 min
Procedure: The results are expressed as percent injected dose per gram of tissue. […] For this series of experiments, 50 microliters of dimethylsulfoxide lacking or containing 7.2 mM TPB were injected directly into the jugular vein of anesthetized rats immediately prior to the injection of Tc-MIBI (150 microliters; 100 microCuries per 200 microliters).
After 15 minutes, the animal was sacrificed by thoracotomy, organs extracted and placed in test tubes and counted for radioactivity in a standard well-type gamma counter. Tissue wet weights were obtained by subtracting fare weights from total weight of test tubes plus tissue.
Results are expressed as mean ±SEM of three determinations each.

For [C-]#[N+]CC(C)(C)OC.[C-]#[N+]CC(C)(C)OC.[C-]#[N+]CC(C)(C)OC.[C-]#[N+]CC(C)(C)OC.[C-]#[N+]CC(C)(C)OC.[C-]#[N+]CC(C)(C)OC.[Tc] [Tc-MIBI, hexakis(methoxyisobutylisonitrile)technetium(I)], the “valinomycin sensitivity of Tc-MIBI influx” value ([1]; absence of TPB) was “only modestly valinomycin-sensitive”, the “valinomycin sensitivity of Tc-MIBI influx” value ([1]; presence of TPB 10^-5 M) was “highly valinomycin-sensitive” and the “Nernstian behavior of Tc-MIBI” value ([1]; presence of valinomycin) was “close to ideal Nernstian behavior”. The “correlation coefficient r, Em vs log Ko from Tc-MIBI influx” value ([1]; valinomycin 1 ug/ml, no TPB) was -0.99, the “slope of membrane potential vs log Ko from Tc-MIBI influx” value ([1]; valinomycin 1 ug/ml, no TPB, Goldman flux equation) was -67 mV/decade and the “regression -Em = -67 log Ko + 147 mV: intercept” value ([1]; valinomycin, FIG. 6C) was 147 mV. For the same compound, the “regression -Em = -67 log Ko + 147 mV: slope” value ([1]; valinomycin, FIG. 6C) was -67, the Blood level ([2]; +TPB) was 0.06 ± 0.01 % ID/gm and the Heart uptake ([2]; +TPB) was 1.45 ± 0.11 % ID/gm. For the same compound, the Kidney uptake ([2]; +TPB) was 5.81 ± 0.74 % ID/gm, the Liver uptake ([2]; +TPB) was 0.76 ± 0.40 % ID/gm and the Lung uptake ([2]; +TPB) was 1.07 ± 0.15 % ID/gm. For the same compound, the “tissue retention of Tc-MIBI, all tissues” value ([2]; +TPB) was 9.15 % ID per gram of total tissue, the Blood level ([2]; -TPB) was 0.04 ± 0.01 % ID/gm and the Heart uptake ([2]; -TPB) was 1.92 ± 0.51 % ID/gm. For the same compound, the Kidney uptake ([2]; -TPB) was 3.38 ± 1.09 % ID/gm, the Liver uptake ([2]; -TPB) was 0.25 ± 0.15 % ID/gm and the Lung uptake ([2]; -TPB) was 0.45 ± 0.09 % ID/gm. For the same compound, the “tissue retention of Tc-MIBI, all tissues” value ([2]; -TPB) was 6.04 % ID per gram of total tissue.
